The subject of assay [1] is ASD mouse models. The following applies: range of ASD mouse models (Orefice et al., 2019, Cell 178, 867-886); cited from earlier work.
For assay [2], the system named is Mecp2 conditional mutant mice. As to the kind of experiment: Tactile PPI performance in Mecp2 conditional mutant mice. It counts as in vivo. Particulars: 30 minutes following administration of 2 mg/kg, versus saline. The protocol:
(§1) Tactile PPI performance in Mecp2 or Shank3 conditional mutant mice, and their control littermates, 30 minutes following administration of either saline or 2 mg/kg compound 5.

For assay [3], the system named is Shank3 conditional mutant mice. The assay is described as follows: Tactile PPI performance in Shank3 conditional mutant mice. It is filed as in vivo. Particulars: 30 minutes following administration of 2 mg/kg, versus saline. As to the method:
as §1

In the case of `Nc1[nH]c(=O)nc2nc[nH]c12` [isoguanine], in assay [1], the anxiety entry is “useful to reduce”.

In the case of `NC1C=C(C(=O)O)CCC1` (stereo not drawn) [compound 5, 3-aminocyclohex-1-ene-1-carboxylic acid], the “hairy skin hypersensitivity (tactile PPI performance)” value in assay [2] and in assay [3] was “reduces hairy skin hypersensitivity” in each case.

The values are drawn from US20220233133A1, “HUMAN TACTILE PREPULSE […]” (President and Fellows of Harvard College, priority 2019, published 2022).
